Test results published in patent publication US6239128A, “Indole-2,3-dione-3-oxime derivatives for therapeutic use” (Neurosearch A/S, priority 1998, dated 2001).

target: AMPA receptor; test: in vitro receptor affinity test: inhibition of specific binding of ^3 H-AMPA; design: species or system male Wistar rats (cerebral cortex); details: rat cerebral cortex membranes; ^3 H-AMPA 5 nM; 30 minutes at 2° C.; 30 mM Tris-HCl, 2.5 mM CaCl2, 100 mM KSCN, pH 7.4; read-out: IC50 (the concentration (μM) of the test substance which inhibits the specific binding of ^3 H-AMPA by 50%)
Source text: In an in vitro activity (receptor affinity) test, the chemical compounds of the present invention have been tested for their affinity for the AMPA receptor.
L-glutamate (GLU) is the major excitatory neurotransmitter in the mammalian central nervous system. From electro-physiological- and binding studies, there appear to be at least three subtypes of GLU receptors, tentatively named N-methyl-D-aspartate (NMDA) receptors, quisqualate receptors and kainate receptors. AMPA has been known for several years to be a potent and selective agonist at the traditionally named quisqualate receptors. Activation of quisqualate receptors by AMPA is associated with Na^+ influx and K^+ efflux leading to depolarisation. ^3 H-AMPA is a selective radioligand for labelling the ionotropic quisqualate (AMPA) receptors.
Preparations are performed at 0-4° C. unless otherwise indicated. Cerebral cortex from male Wistar rats (150-200 g) is homogenised for 5-10 sec in 20 ml Tris-HCl (30 mM, pH 7.4) using an Ultra-Turrax™ homogeniser. The suspension is centrifuged at 27,000×g for 15 minutes and the pellet is washed three times with buffer (centrifuged at 27,000×g for 10 minutes). The washed pellet is homogenised in 20 ml of buffer and incubated on a water bath (of 37° C) for 30 minutes to remove endogenous glutamate and then centrifuged for 10 minutes at 27,000×g. The pellet is then homogenised in buffer and centrifuged at for 10 minutes at 27,000×g. The final pellet is resuspended in 30 ml buffer and the preparation is frozen and stored at -20° C.
The membrane preparation is thawed and centrifuged at 2° C. for 10 minutes at 27,000×g. […] Non-specific binding is determined using L-glutamate (0.6 mM, final concentration).
After incubation the 550 μl samples are added 5 ml of ice-cold buffer and poured directly onto Whatman™ GF/C glass fibre filters under suction and immediately washed with 5 ml of ice-cold buffer. […] The amount of radioactivity on the filters is determined by conventional liquid scintillation counting. […]

IC50 [µM]	SMILES
0.15	CN1CCc2c(-c3ccc(S(=O)(=O)N(C)C)cc3)cc3c(c2C1)NC(=O)C3=NOC1CCOC1=O (stereo not drawn) [8-methyl-5-(4-(N,N-dimethylsulfamoyl)phenyl)-6-7-8-9-tetrahydro-1H-pyrrolo[3,2-h]-isoquinoline-2,3-dione-3-O-(3-(2-oxo)tetrahydrofuryl)oxime]
0.05	CN1CCc2c(-c3ccc(S(=O)(=O)N(C)C)cc3)cc3c(c2C1)NC(=O)C3=NOC(CCO)C(=O)O (stereo not drawn) [8-methyl-5-(4-(N,N-dimethylsulfamoyl)phenyl)-6-7-8-9-tetrahydro-1H-pyrrolo[3,2-h]isoquinoline-2,3-dione-3-O-(4-hydroxybutyric acid-2-yl)oxime]
0.1	CCOC(=O)CON=C1C(=O)Nc2c1cc(-c1ccc(S(=O)(=O)N(C)C)cc1)c1c2CN(C)CC1 [8-methyl-5-(4-(N,N-dimethylsulphamoyl)phenyl-6,7,8,9-tetrahydro-1H-pyrrolo[3,2-h]isoquinoline-2,3-dione-3-O-(ethoxycarbonylmethyl)oxime]
